Molecular target: T1, Kv7.2/7.3 (Homo sapiens, UniProt O43525+O43526)
T1 construct: Kv7.2 tetracycline-induced, Kv7.3 constitutive
Assay: Kv7.2/7.3 Activation Assay (Thallium Flux Assay)
Type: cell-based
Conditions: hKV7.2/7.3 cell line; test compound at single concentration of 10 μM; fluorescence at 90 sec normalized to positive control (retigabine, 30 μM)
Outline: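 Human Kv7.2/7.3 cells with Kv7.2 induced overnight by 10 ng/mL tetracycline were loaded with FluxOR II Green for 1 h at 37 °C. Compounds were tested at 10 μM in 0.1% DMSO/extracellular solution, pH 7.4. Thallium/potassium stimulus was added after a 15 s baseline, and 90 s fluorescence (ex 475/em 530 nm) was normalized to 30 μM retigabine.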

Kv7.2/7.3 Activity	Compound
+ (“+” Moderate Activity 0.15-0.7)	Cn1nc(NC(=O)C2(C(C)(F)F)CC2)c(C2CCC2)c1-c1ccccc1F [Compound 171, N-(4-cyclobutyl-5-(2-fluorophenyl)-1-methyl-1H-pyrazol-3-yl)-1-(1,1-difluoroethyl)cyclopropane-1-carboxamide]
+ (“+” Moderate Activity 0.15-0.7)	Cn1nc(NC(=O)C(C)(C)C(F)F)c(C2CCC2)c1-c1ccccc1F [Compound 172, N-(4-cyclobutyl-5-(2-fluorophenyl)-1-methyl-1H-pyrazol-3-yl)-3,3-difluoro-2,2-dimethylpropanamide]
− (“−” No Activity < 0.15)	Cn1nc(NC(=O)[C@H]2CC2(F)F)c(C2CCC2)c1-c1ccc(OC(F)(F)F)cc1 [Compound 173, (R)-N-(4-cyclobutyl-1-methyl-5-(4-(trifluoromethoxy)phenyl)-1H-pyrazol-3-yl)-2,2-difluorocyclopropane-1-carboxamide]
+ (“+” Moderate Activity 0.15-0.7)	Cn1nc(NC(=O)[C@@H]2CC2(F)F)c(C2CCC2)c1-c1ccc(OC(F)(F)F)cc1 [Compound 174, (S)-N-(4-cyclobutyl-1-methyl-5-(4-(trifluoromethoxy)phenyl)-1H-pyrazol-3-yl)-2,2-difluorocyclopropane-1-carboxamide]
++ (“++” High Activity ≥ 0.7)	Cn1nc(NC(=O)CC(C)(O)c2ccc(F)cc2F)c(C2CCC2)c1-c1ccc(OC(F)(F)F)cc1 (stereo not drawn) [Compound 175, N-(4-cyclobutyl-1-methyl-5-(4-(trifluoromethoxy)phenyl)-1H-pyrazol-3-yl)-3-(2,4-difluorophenyl)-3-hydroxybutanamide]
++ (“++” High Activity ≥ 0.7)	Cn1nc(NC(=O)CC(C)(O)c2ccc(F)cc2F)c(C2CCC2)c1-c1ccc(OC(F)(F)F)cc1 (stereo not drawn) [Compound 176, N-(4-cyclobutyl-1-methyl-5-(4-(trifluoromethoxy)phenyl)-1H-pyrazol-3-yl)-3-(2,4-difluorophenyl)-3-hydroxybutanamide]
++ (“++” High Activity ≥ 0.7)	C[C@H](C(=O)Nc1nn(C)c(-c2ccc(OC(F)(F)F)cc2)c1C1CCC1)C1CC(F)(F)C1 [Compound 177, (S)-N-(4-cyclobutyl-1-methyl-5-(4-(trifluoromethoxy)phenyl)-1H-pyrazol-3-yl)-2-(3,3-difluorocyclobutyl)propanamide]
− (“−” No Activity < 0.15)	C[C@@H](C(=O)Nc1nn(C)c(-c2ccc(OC(F)(F)F)cc2)c1C1CCC1)C1CC(F)(F)C1 [Compound 178, (R)-N-(4-cyclobutyl-1-methyl-5-(4-(trifluoromethoxy)phenyl)-1H-pyrazol-3-yl)-2-(3,3-difluorocyclobutyl)propanamide]
++ (“++” High Activity ≥ 0.7)	Cn1nc(NC(=O)C23CC(C(F)(F)F)(C2)C3)c(C2CCC2)c1-c1ccc(F)cc1 [Compound 179, N-(4-cyclobutyl-5-(4-fluorophenyl)-1-methyl-1H-pyrazol-3-yl)-3-(trifluoromethyl)bicyclo[1.1.1]pentane-1-carboxamide]
++ (“++” High Activity ≥ 0.7)	Cn1nc(NC(=O)CC(C(F)(F)F)C(F)(F)F)c(C2CCC2)c1-c1ccc(OC(F)(F)F)cc1 [Compound 180, N-(4-cyclobutyl-1-methyl-5-(4-(trifluoromethoxy)phenyl)-1H-pyrazol-3-yl)-4,4,4-trifluoro-3-(trifluoromethyl)butanamide]
− (“−” No Activity < 0.15)	Cn1nc(NC(=O)C(C)(O)c2ccccc2)c(C2CCC2)c1-c1ccc(OC(F)(F)F)cc1 (stereo not drawn) [Compound 181, N-(4-cyclobutyl-1-methyl-5-(4-(trifluoromethoxy)phenyl)-1H-pyrazol-3-yl)-2-hydroxy-2-phenylpropanamide]
++ (“++” High Activity ≥ 0.7)	Cn1nc(NC(=O)C(C)(O)c2ccccc2)c(C2CCC2)c1-c1ccc(OC(F)(F)F)cc1 (stereo not drawn) [Compound 182, N-(4-cyclobutyl-1-methyl-5-(4-(trifluoromethoxy)phenyl)-1H-pyrazol-3-yl)-2-hydroxy-2-phenylpropanamide]
++ (“++” High Activity ≥ 0.7)	Cn1nc(NC(=O)[C@H]2C[C@@H](C)C2)c(C2CCC2)c1-c1ccc(OC(F)(F)F)cc1 [Compound 183, (1s,3s)-N-(4-cyclobutyl-1-methyl-5-(4-(trifluoromethoxy)phenyl)-1H-pyrazol-3-yl)-3-methylcyclobutane-1-carboxamide]
++ (“++” High Activity ≥ 0.7)	Cn1nc(NC(=O)[C@H]2C[C@H](C)C2)c(C2CCC2)c1-c1ccc(OC(F)(F)F)cc1 [Compound 184, (1r,3r)-N-(4-cyclobutyl-1-methyl-5-(4-(trifluoromethoxy)phenyl)-1H-pyrazol-3-yl)-3-methylcyclobutane-1-carboxamide]
++ (“++” High Activity ≥ 0.7)	Cn1nc(NC(=O)C2CC(C)(C)C2)c(C2CCC2)c1-c1ccc(OC(F)(F)F)cc1 [Compound 185, N-(4-cyclobutyl-1-methyl-5-(4-(trifluoromethoxy)phenyl)-1H-pyrazol-3-yl)-3,3-dimethylcyclobutane-1-carboxamide]
++ (“++” High Activity ≥ 0.7)	Cn1nc(NC(=O)C2CC3(C2)CC3(F)F)c(C2CCC2)c1-c1ccc(OC(F)(F)F)cc1 (stereo not drawn) [Compound 186, N-(4-cyclobutyl-1-methyl-5-(4-(trifluoromethoxy)phenyl)-1H-pyrazol-3-yl)-1,1-difluorospiro[2.3]hexane-5-carboxamide]
++ (“++” High Activity ≥ 0.7)	Cn1nc(NC(=O)C2CC3(CCC3)C2)c(C2CCC2)c1-c1ccc(F)cc1 [Compound 187, N-(4-cyclobutyl-5-(4-fluorophenyl)-1-methyl-1H-pyrazol-3-yl)spiro[3.3]heptane-2-carboxamide]
++ (“++” High Activity ≥ 0.7)	Cn1nc(NC(=O)C2CC(F)(F)C2)c(C2CCC2)c1C1CC(C)(C)C1 [Compound 188, N-(4-cyclobutyl-5-(3,3-dimethylcyclobutyl)-1-methyl-1H-pyrazol-3-yl)-3,3-difluorocyclobutane-1-carboxamide]
+ (“+” Moderate Activity 0.15-0.7)	Cn1nc(NC(=O)C2CC(F)(F)C2)c(C2CCC2)c1-c1ccc(OC(F)(F)F)cc1 [Compound 189, N-(4-cyclobutyl-1-methyl-5-(4-(trifluoromethoxy)phenyl)-1H-pyrazol-3-yl)-3,3-difluorocyclobutane-1-carboxamide]
++ (“++” High Activity ≥ 0.7)	Cn1nc(NC(=O)C2CCC2)c(C2CCC2)c1-c1ccc(OC(F)(F)F)cc1 [Compound 190, N-(4-cyclobutyl-1-methyl-5-(4-(trifluoromethoxy)phenyl)-1H-pyrazol-3-yl)cyclobutanecarboxamide]
++ (“++” High Activity ≥ 0.7)	Cn1nc(NC(=O)C2CC(C(F)(F)F)C2)c(C2CCC2)c1-c1ccc(OC(F)(F)F)cc1 (stereo not drawn) [Compound 191, N-(4-cyclobutyl-1-methyl-5-(4-(trifluoromethoxy)phenyl)-1H-pyrazol-3-yl)-3-(trifluoromethyl)cyclobutane-1-carboxamide]
++ (“++” High Activity ≥ 0.7)	Cn1nc(NC(=O)C2CC(F)(F)C2)c(C2CCC2)c1-c1ccc(F)c(F)c1 [Compound 192, N-(4-cyclobutyl-5-(3,4-difluorophenyl)-1-methyl-1H-pyrazol-3-yl)-3,3-difluorocyclobutane-1-carboxamide]
++ (“++” High Activity ≥ 0.7)	Cn1nc(NC(=O)C2CC(F)(F)C2)c(C2CCC2)c1-c1cccc(F)c1 [Compound 193, N-(4-cyclobutyl-5-(3-fluorophenyl)-1-methyl-1H-pyrazol-3-yl)-3,3-difluorocyclobutane-1-carboxamide]
++ (“++” High Activity ≥ 0.7)	Cn1nc(NC(=O)C2CC(F)(F)C2)c(C2CCC2)c1-c1ccc(Cl)s1 [Compound 194, N-(5-(5-chlorothiophen-2-yl)-4-cyclobutyl-1-methyl-1H-pyrazol-3-yl)-3,3-difluorocyclobutane-1-carboxamide]
+ (“+” Moderate Activity 0.15-0.7)	Cn1nc(NC(=O)C2CC(F)(F)C2)c(C2CCC2)c1-c1cnc(C(F)(F)F)s1 [Compound 195, N-(4-cyclobutyl-1-methyl-5-(2-(trifluoromethyl)thiazol-5-yl)-1H-pyrazol-3-yl)-3,3-difluorocyclobutane-1-carboxamide]
+ (“+” Moderate Activity 0.15-0.7)	Cn1nc(NC(=O)C(C2CC2)C2CC2)c(C2CCC2)c1-c1ccc(F)cc1 [Compound 196, N-(4-cyclobutyl-5-(4-fluorophenyl)-1-methyl-1H-pyrazol-3-yl)-2,2-dicyclopropylacetamide]
++ (“++” High Activity ≥ 0.7)	Cn1nc(NC(=O)c2ccccc2)c(C2CCC2)c1-c1ccc(F)cc1 [Compound 197, N-(4-cyclobutyl-5-(4-fluorophenyl)-1-methyl-1H-pyrazol-3-yl)benzamide]
+ (“+” Moderate Activity 0.15-0.7)	Cn1nc(NC(=O)c2ccccc2)c(C2CCC2)c1-c1ccc(OC(F)(F)F)cc1 [Compound 198, N-(4-cyclobutyl-1-methyl-5-(4-(trifluoromethoxy)phenyl)-1H-pyrazol-3-yl)benzamide]
++ (“++” High Activity ≥ 0.7)	Cn1nc(NC(=O)C2(C)CC(F)(F)C2)c(C2CCC2)c1-c1ccc(F)cc1 [Compound 199, N-(4-cyclobutyl-5-(4-fluorophenyl)-1-methyl-1H-pyrazol-3-yl)-3,3-difluoro-1-methylcyclobutane-1-carboxamide]
+ (“+” Moderate Activity 0.15-0.7)	Cn1nc(NC(=O)C2(C)CC(F)(F)C2)c(C2CCC2)c1-c1ccc(OC(F)(F)F)cc1 [Compound 200, N-(4-cyclobutyl-1-methyl-5-(4-(trifluoromethoxy)phenyl)-1H-pyrazol-3-yl)-3,3-difluoro-1-methylcyclobutane-1-carboxamide]
